The text below walks through data of patent publication US11759462B2, “Spirocyclic compounds as tryptophan hydroxylase inhibitors” (priority 2013, dated 2023).

By IC50 is commonly meant the concentration that gives 50% inhibition.

In this experiment the target is T1, Recombinant human TPH1 (MBP tagged) (Homo sapiens, UniProt P17752).
T1 construct: cloning full length human TPH1 cDNA in to a bacterial pMAL-c5E expression vector; made in house; host or cells: E. coli BL21 (DE3)
T1 sequence (P17752 1-444): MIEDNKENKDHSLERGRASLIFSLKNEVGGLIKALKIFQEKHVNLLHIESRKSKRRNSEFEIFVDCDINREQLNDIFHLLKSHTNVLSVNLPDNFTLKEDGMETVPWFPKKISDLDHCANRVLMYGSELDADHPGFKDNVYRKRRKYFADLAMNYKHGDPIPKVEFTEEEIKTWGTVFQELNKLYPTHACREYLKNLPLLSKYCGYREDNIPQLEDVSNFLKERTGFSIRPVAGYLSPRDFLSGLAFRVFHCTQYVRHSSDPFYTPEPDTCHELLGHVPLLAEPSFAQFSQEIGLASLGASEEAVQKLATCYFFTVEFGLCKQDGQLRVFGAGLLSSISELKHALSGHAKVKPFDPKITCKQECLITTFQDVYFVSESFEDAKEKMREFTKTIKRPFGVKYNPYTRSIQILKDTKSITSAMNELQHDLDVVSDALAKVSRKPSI
Kind of experiment: TPH1 in vitro inhibition assay (kinetic fluorescence). The class given is biochemical. The gist of the method: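 Final mix: 15 nM MBP-TPH1, 30 μM Trp, 36 μM 6-methyltetrahydropterin, 25 μM ferrous ammonium sulfate, 50 mM MES pH 7.1, 1% DMSO, room temperature.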

The mark [1] stands for this setting: read-out: TPH1 Range (TPH1 inhibition IC50).

Each structure is given as a SMILES string. Where two headings read alike, the source gives them in different places. Some results are limits rather than exact numbers.

Turning to `Nc1nc(O[C@H](c2ccc(-c3ccc(Cl)cc3)cc2)C(F)(F)F)cc(N2CCC3(CC2)CN[C@H](C(=O)O)C3)n1` [Example 55cy, (S)-8-(2-amino-6-((R)-1-(4′-chloro-[1,1′-biphenyl]-4-yl)-2,2,2-trifluoroethoxy)pyrimidin-4-yl)-2,8-diazaspiro[4.5]decane-3-carboxylic acid], the IC50 under setting [1] fell in the range of 300 to 3000 nM. For the compound `Nc1nc(O[C@H](c2ccc(-c3coc4ccccc34)cc2)C(F)(F)F)cc(N2CCC3(CC2)CN[C@H](C(=O)O)C3)n1` [Example 55cz, (S)-8-(2-amino-6-((R)-1-(4-(benzofuran-3-yl)phenyl)-2,2,2-trifluoroethoxy)pyrimidin-4-yl)-2,8-diazaspiro[4.5]decane-3-carboxylic acid], under setting [1], the IC50 was in the range of 50 to 300 nM. `Nc1nc(O[C@H](c2ccc(-c3ccc4[nH]cnc4c3)cc2)C(F)(F)F)cc(N2CCC3(CC2)CN[C@H](C(=O)O)C3)n1` [Example 55d, (S)-8-(6-((R)-1-(4-(1H-benzo[d]imidazol-5-yl)phenyl)-2,2,2-trifluoroethoxy)-2-aminopyrimidin-4-yl)-2,8-diazaspiro[4.5]decane-3-carboxylic acid]: the IC50 under setting [1] is less than 50 nM. Same read-out and setting: with `COc1ccc(F)cc1-c1ccc([C@@H](Oc2cc(N3CCC4(CC3)CN[C@H](C(=O)O)C4)nc(N)n2)C(F)(F)F)cc1` [Example 55da, (S)-8-(2-amino-6-((R)-2,2,2-trifluoro-1-(5′-fluoro-2′-methoxy-[1,1′-biphenyl]-4-yl)ethoxy)pyrimidin-4-yl)-2,8-diazaspiro[4.5]decane-3-carboxylic acid] the figure was 300 to 3000 nM; with `Nc1nc(O[C@H](c2ccc(-c3ccc4c(c3)OC(=O)CC4)cc2)C(F)(F)F)cc(N2CCC3(CC2)CN[C@H](C(=O)O)C3)n1` [Example 55db, (S)-8-(2-amino-6-((R)-2,2,2-trifluoro-1-(4-(2-oxochroman-7-yl)phenyl)ethoxy)pyrimidin-4-yl)-2,8-diazaspiro[4.5]decane-3-carboxylic acid], 300 to 3000 nM. Take `Nc1nc(O[C@H](c2ccc(-c3ccc4ncc(F)cc4c3)cc2)C(F)(F)F)cc(N2CCC3(CC2)CN[C@H](C(=O)O)C3)n1` [Example 55dc, (S)-8-(2-amino-6-((R)-2,2,2-trifluoro-1-(4-(3-fluoroquinolin-6-yl)phenyl)ethoxy)pyrimidin-4-yl)-2,8-diazaspiro[4.5]decane-3-carboxylic acid]: the IC50 (TPH1 Range (TPH1 inhibition IC50)) is less than 50 nM. With `CCCOc1ccc(-c2ccc([C@@H](Oc3cc(N4CCC5(CC4)CN[C@H](C(=O)O)C5)nc(N)n3)C(F)(F)F)cc2)cc1` [Example 55dd, (S)-8-(2-amino-6-((R)-2,2,2-trifluoro-1-(4′-propoxy-[1,1′-biphenyl]-4-yl)ethoxy)pyrimidin-4-yl)-2,8-diazaspiro[4.5]decane-3-carboxylic acid], the IC50 under setting [1] is 50 to 300 nM. The same measure, in the same setting: with `CCN(CC)C(=O)c1ccc(-c2ccc([C@@H](Oc3cc(N4CCC5(CC4)CN[C@H](C(=O)O)C5)nc(N)n3)C(F)(F)F)cc2)cc1` [Example 55de, (S)-8-(2-amino-6-((R)-1-(4′-(diethylcarbamoyl)-[1,1′-biphenyl]-4-yl)-2,2,2-trifluoroethoxy)pyrimidin-4-yl)-2,8-diazaspiro[4.5]decane-3-carboxylic acid] the figure was 50 to 300 nM.

`NC(=O)c1ccc(-c2ccc([C@@H](Oc3cc(N4CCC5(CC4)CN[C@H](C(=O)O)C5)nc(N)n3)C(F)(F)F)cc2)cc1` [Example 55df, (S)-8-(2-amino-6-((R)-1-(4′-carbamoyl-[1,1′-biphenyl]-4-yl)-2,2,2-trifluoroethoxy)pyrimidin-4-yl)-2,8-diazaspiro[4.5]decane-3-carboxylic acid]: the IC50 under setting [1] is 50 to 300 nM.

For `CNC(=O)c1ccc(-c2ccc([C@@H](Oc3cc(N4CCC5(CC4)CN[C@H](C(=O)O)C5)nc(N)n3)C(F)(F)F)cc2)cc1` [Example 55dg, (S)-8-(2-amino-6-((R)-2,2,2-trifluoro-1-(4′-(methylcarbamoyl)-[1,1′-biphenyl]-4-yl)ethoxy)pyrimidin-4-yl)-2,8-diazaspiro[4.5]decane-3-carboxylic acid], under setting [1], the IC50 was 50 to 300 nM. On the same count and under the same terms, the value for `Nc1nc(O[C@H](c2ccc(-c3ccc(C(=O)NCCN4CCOCC4)cc3)cc2)C(F)(F)F)cc(N2CCC3(CC2)CN[C@H](C(=O)O)C3)n1` [Example 55dh, (S)-8-(2-amino-6-((R)-2,2,2-trifluoro-1-(4′-((2-morpholinoethyl)carbamoyl)-[1,1′-biphenyl]-4-yl)ethoxy)pyrimidin-4-yl)-2,8-diazaspiro[4.5]decane-3-carboxylic acid] was 50 to 300 nM; that for `CS(=O)(=O)c1ccc(-c2ccc([C@@H](Oc3cc(N4CCC5(CC4)CN[C@H](C(=O)O)C5)nc(N)n3)C(F)(F)F)cc2)cc1` [Example 55di, (S)-8-(2-amino-6-((R)-2,2,2-trifluoro-1-(4′-(methylsulfonyl)-[1,1′-biphenyl]-4-yl)ethoxy)pyrimidin-4-yl)-2,8-diazaspiro[4.5]decane-3-carboxylic acid] was 50 to 300 nM; that for `Nc1nc(O[C@H](c2ccc(-c3ccc(S(N)(=O)=O)cc3)cc2)C(F)(F)F)cc(N2CCC3(CC2)CN[C@H](C(=O)O)C3)n1` [Example 55dj, (S)-8-(2-amino-6-((R)-2,2,2-trifluoro-1-(4′-sulfamoyl-[1,1′-biphenyl]-4-yl)ethoxy)pyrimidin-4-yl)-2,8-diazaspiro[4.5]decane-3-carboxylic acid] was 50 to 300 nM. The same measure, in the same setting: the value for `Nc1nc(O[C@H](c2ccc(-c3ccc(C(=O)N4CCNCC4)cc3)cc2)C(F)(F)F)cc(N2CCC3(CC2)CN[C@H](C(=O)O)C3)n1` [Example 55dl, (S)-8-(2-amino-6-((R)-2,2,2-trifluoro-1-(4′-(piperazine-1-carbonyl)-[1,1′-biphenyl]-4-yl)ethoxy)pyrimidin-4-yl)-2,8-diazaspiro[4.5]decane-3-carboxylic acid] was 50 to 300 nM; that for `CCCOc1ccc(-c2ccc([C@@H](Oc3cc(N4CCC5(CC4)CN[C@H](C(=O)O)C5)nc(N)n3)C(F)(F)F)cc2)cc1F` [Example 55dm, (S)-8-(2-amino-6-((R)-2,2,2-trifluoro-1-(3′-fluoro-4′-propoxy-[1,1′-biphenyl]-4-yl)ethoxy)pyrimidin-4-yl)-2,8-diazaspiro[4.5]decane-3-carboxylic acid] was 50 to 300 nM. The same measure, in the same setting: with `CCOc1ccc(-c2ccc([C@@H](Oc3cc(N4CCC5(CC4)CN[C@H](C(=O)O)C5)nc(N)n3)C(F)(F)F)cc2)cc1F` [Example 55dn, (S)-8-(2-amino-6-((R)-1-(4′-ethoxy-3′-fluoro-[1,1′-biphenyl]-4-yl)-2,2,2-trifluoroethoxy)pyrimidin-4-yl)-2,8-diazaspiro[4.5]decane-3-carboxylic acid] the figure was 50 to 300 nM; with `CCOc1ccc(-c2ccc([C@@H](Oc3cc(N4CCC5(CC4)CN[C@H](C(=O)O)C5)nc(N)n3)C(F)(F)F)cc2)cc1` [Example 55do, (S)-8-(2-amino-6-((R)-1-(4′-ethoxy-[1,1′-biphenyl]-4-yl)-2,2,2-trifluoroethoxy)pyrimidin-4-yl)-2,8-diazaspiro[4.5]decane-3-carboxylic acid], less than 50 nM; with `Nc1nc(O[C@H](c2ccc(-c3ccc4nnccc4c3)cc2)C(F)(F)F)cc(N2CCC3(CC2)CN[C@H](C(=O)O)C3)n1` [Example 55dp, (S)-8-(2-amino-6-((R)-1-(4-(cinnolin-6-yl)phenyl)-2,2,2-trifluoroethoxy)pyrimidin-4-yl)-2,8-diazaspiro[4.5]decane-3-carboxylic acid], less than 50 nM.
